One block for each compound: values may come before it. Calls of active or inactive are those of the source.
How the values were obtained:
[1] = cytotoxicity in HMLE control line with eGFP shRNA, dose response, counter-screen for HMLE_sh_ECad selective toxicity project, cell-based, HMLE_sh_eGFP, luminescence (AID 463074); type: functional, Homo sapiens;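 also: HMLE human mammary epithelial cells expressing control shRNA against eGFP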
[2] = Luminescence Cell-Based Dose Retest to Confirm Inhibitors of Cancer Stem Cells. [Related pubchem assays (depositor defined):AID2717, AID2721]; type: functional; conditions: Homo sapiens
[3] = cytotoxicity toward NIH3T3 fibroblasts, dose response, counter-screen, cell-based, ATP luminescence, mouse fibroblasts (AID 2010); type: functional;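 also: cells exposed to compound for about 90 hours before reading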
[4] = inhibitors of intracellular T. cruzi replication, confirmation, NIH3T3 host cells, beta-gal luminescence (AID 2044); type: functional, cell-based;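 also: intracellular parasites grown in NIH/3T3 mouse fibroblasts as host cells; luminescent beta-galactosidase reporter signal from transgenic T. cruzi replicating inside host cells; inhibitors lower the luminescence signal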
[5] = Luminescence Cell-Based/Microorganism Confirmation at Dose of Inhibitors of Trypanosoma cruzi Infection. [Related pubchem assays: 1885, 1968 ]; type: functional
[6] = inhibitors of Trypanosoma cruzi host-cell infection, confirmation, beta-gal luminescence, NIH3T3 host cells (AID 2630); type: functional, cell-based; conditions: Mus musculus
[7] = Luminescence Cell-Based Secondary HTS screen to identify cytotoxic compounds of NIH3T3 cells. [Related pubchem assays: 1885, 1968 ]; type: functional
[8] = biological target: T1, Dual specificity protein phosphatase 6 (Rattus norvegicus, UniProt Q64346); type: functional
T1 sequence (Q64346 whole entry): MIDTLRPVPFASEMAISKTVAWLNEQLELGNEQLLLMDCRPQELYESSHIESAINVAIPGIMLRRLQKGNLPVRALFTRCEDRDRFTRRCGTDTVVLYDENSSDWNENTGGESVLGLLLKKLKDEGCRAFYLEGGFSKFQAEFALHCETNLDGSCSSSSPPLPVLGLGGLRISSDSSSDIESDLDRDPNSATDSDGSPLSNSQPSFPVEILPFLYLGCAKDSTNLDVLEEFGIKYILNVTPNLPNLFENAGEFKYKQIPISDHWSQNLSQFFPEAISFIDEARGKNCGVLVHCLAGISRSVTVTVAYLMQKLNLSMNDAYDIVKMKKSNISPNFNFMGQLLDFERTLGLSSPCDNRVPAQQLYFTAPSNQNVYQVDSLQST

[9] = biological target: T1, Dual specificity protein phosphatase 6
[10] = biological target: Tyrosine-protein phosphatase non-receptor type 7 (Homo sapiens, UniProt P35236); type: functional
Tyrosine-protein phosphatase non-receptor type 7, sequence (P35236 whole entry): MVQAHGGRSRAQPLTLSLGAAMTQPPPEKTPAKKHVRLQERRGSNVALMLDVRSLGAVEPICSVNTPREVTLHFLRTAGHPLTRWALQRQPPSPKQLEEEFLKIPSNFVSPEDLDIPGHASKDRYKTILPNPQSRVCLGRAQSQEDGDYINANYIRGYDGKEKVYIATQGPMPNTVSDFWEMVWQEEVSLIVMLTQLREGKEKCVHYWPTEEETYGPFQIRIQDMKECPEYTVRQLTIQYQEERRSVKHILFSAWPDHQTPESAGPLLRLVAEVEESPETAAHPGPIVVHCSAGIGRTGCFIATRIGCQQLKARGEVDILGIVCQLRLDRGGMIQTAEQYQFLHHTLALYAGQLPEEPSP

[11] = biological target: Glyceraldehyde-3-phosphate dehydrogenase (Homo sapiens, UniProt P04406)
Glyceraldehyde-3-phosphate dehydrogenase, sequence (P04406 whole entry): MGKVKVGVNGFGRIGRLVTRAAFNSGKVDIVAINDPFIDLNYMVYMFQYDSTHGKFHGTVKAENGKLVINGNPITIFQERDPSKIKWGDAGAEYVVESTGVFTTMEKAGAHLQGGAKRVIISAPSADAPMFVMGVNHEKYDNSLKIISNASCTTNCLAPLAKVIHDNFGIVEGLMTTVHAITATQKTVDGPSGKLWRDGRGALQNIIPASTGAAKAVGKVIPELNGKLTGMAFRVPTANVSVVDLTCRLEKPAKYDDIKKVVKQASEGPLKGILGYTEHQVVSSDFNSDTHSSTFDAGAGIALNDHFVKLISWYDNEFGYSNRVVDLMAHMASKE

[12] = biological target: T2, G-protein coupled receptor 55 (Homo sapiens, UniProt Q9Y2T6); assay: GPR55 antagonist potency of analogs, SAR follow-up, imaging, U2OS, beta-arrestin-GFP, LPI agonist, set 2 (AID 2820); type: functional
T2 sequence (Q9Y2T6 whole entry): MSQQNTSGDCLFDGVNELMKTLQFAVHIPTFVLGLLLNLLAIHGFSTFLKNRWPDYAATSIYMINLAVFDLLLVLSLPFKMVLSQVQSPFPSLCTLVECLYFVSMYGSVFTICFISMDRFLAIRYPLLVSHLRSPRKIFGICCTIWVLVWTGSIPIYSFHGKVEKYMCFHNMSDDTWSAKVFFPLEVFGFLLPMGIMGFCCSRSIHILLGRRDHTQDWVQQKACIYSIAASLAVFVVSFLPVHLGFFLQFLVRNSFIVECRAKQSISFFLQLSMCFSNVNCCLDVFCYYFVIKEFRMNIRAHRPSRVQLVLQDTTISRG

[13] = biological target: T2, G-protein coupled receptor 55; assay: GPR55 antagonists blocking LPI-driven arrestin recruitment, primary screen, imaging, U2OS, beta-arrestin-GFP, LPI agonist (AID 2013); type: functional;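 also: antagonist potency measured as reduced agonist-driven arrestin aggregation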
Cannabinoid receptor 1 [14] = biological target: T3, Cannabinoid receptor 1 (Homo sapiens, UniProt P21554); assay: SAR analysis of agonists of the Cannabinoid Receptor 1 using an Image-Based Assay - Set 2. [Related pubchem assays (depositor defined):AID2013, AID2026]; type: functional
T3 sequence (P21554 whole entry): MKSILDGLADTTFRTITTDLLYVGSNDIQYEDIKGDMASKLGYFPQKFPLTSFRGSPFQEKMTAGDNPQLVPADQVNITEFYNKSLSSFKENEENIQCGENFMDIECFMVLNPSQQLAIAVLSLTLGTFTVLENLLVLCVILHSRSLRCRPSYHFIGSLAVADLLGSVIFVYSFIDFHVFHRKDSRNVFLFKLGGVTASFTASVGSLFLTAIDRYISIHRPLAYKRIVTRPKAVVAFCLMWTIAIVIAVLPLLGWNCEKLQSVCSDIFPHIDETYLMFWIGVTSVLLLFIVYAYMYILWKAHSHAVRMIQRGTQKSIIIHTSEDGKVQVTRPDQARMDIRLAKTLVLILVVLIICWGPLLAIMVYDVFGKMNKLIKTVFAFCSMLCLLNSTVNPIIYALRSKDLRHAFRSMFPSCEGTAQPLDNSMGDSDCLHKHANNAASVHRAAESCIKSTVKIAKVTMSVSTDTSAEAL

[15] = biological target: T4, G-protein coupled receptor 35 (Homo sapiens, UniProt Q9HC97); assay: SAR analysis of Agonists of the GPR35 Receptor using an Image-Based Assay - Set 2. [Related pubchem assays (depositor defined):AID2013, AID2026]; type: functional
T4 sequence (Q9HC97 whole entry): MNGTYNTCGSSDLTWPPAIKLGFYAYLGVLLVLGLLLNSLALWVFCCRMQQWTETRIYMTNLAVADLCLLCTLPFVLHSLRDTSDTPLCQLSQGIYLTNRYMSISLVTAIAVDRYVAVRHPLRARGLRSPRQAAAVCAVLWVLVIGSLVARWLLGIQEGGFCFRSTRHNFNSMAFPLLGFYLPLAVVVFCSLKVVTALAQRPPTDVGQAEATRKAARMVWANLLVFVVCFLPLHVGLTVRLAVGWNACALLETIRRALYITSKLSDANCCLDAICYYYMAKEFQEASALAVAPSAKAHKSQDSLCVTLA

Mucolipin-3 = Mucolipin-3 (Homo sapiens, UniProt Q8TDD5); assay: Dose response cell-based high-throughput screening assay for agonists of the transient receptor potential channel ML3 (TRPML3). [Related pubchem assays: 1526, 1424, 1448 ]; type: functional
Mucolipin-3, sequence (Q8TDD5 whole entry): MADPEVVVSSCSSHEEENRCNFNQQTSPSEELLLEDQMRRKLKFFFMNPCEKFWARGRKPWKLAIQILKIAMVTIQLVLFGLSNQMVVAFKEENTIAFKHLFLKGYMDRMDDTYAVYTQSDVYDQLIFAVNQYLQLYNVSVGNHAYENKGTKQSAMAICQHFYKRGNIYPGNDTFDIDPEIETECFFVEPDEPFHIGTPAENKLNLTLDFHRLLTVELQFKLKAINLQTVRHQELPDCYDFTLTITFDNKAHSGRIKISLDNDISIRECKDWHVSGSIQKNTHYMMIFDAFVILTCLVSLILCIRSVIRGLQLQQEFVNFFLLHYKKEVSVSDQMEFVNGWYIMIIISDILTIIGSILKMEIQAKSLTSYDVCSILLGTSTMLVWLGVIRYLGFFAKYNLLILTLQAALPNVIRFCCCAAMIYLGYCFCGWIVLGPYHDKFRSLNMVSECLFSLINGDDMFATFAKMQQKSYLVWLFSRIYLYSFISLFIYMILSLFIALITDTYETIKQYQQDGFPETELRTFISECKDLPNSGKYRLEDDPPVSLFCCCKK

Cannabinoid receptor 1 [16] = biological target: T3, Cannabinoid receptor 1; assay: SAR analysis of antagonists of the Cannabinoid Receptor 1 using an Image-Based Assay - Set 2. [Related pubchem assays (depositor defined):AID2013, AID2026]; type: functional
[17] = biological target: T4, G-protein coupled receptor 35; assay: SAR analysis of Antagonists of the GPR35 Receptor using an Image-Based Assay - Set 3. [Related pubchem assays (depositor defined):AID2013, AID2026]; type: functional
Cannabinoid receptor 2 [18] = biological target: T5, Cannabinoid receptor 2 (Homo sapiens, UniProt P34972); assay: SAR analysis of antagonists of the Cannabinoid Receptor 2 using an Image-Based Assay. [Related pubchem assays (depositor defined):AID2013, AID2026]; type: functional
T5 sequence (P34972 whole entry): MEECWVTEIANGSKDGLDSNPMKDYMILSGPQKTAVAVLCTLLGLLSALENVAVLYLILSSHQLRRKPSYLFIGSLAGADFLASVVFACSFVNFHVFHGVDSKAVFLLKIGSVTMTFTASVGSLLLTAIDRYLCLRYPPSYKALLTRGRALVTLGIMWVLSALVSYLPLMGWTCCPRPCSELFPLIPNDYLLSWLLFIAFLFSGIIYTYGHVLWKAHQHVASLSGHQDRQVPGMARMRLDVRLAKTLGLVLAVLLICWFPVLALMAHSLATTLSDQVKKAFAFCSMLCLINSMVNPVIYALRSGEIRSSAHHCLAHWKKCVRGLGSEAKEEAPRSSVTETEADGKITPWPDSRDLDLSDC

Cannabinoid receptor 2 [19] = biological target: T5, Cannabinoid receptor 2; assay: SAR analysis of agonists of the Cannabinoid Receptor 2 using an Image-Based Assay. [Related pubchem assays (depositor defined):AID2013, AID2026]; type: functional
Ion channel NompC = Ion channel NompC (Danio rerio, UniProt Q7T1G6); assay: Fluorescence counterscreen assay for TRPML3 agonists: dose response cell-based high-throughput screening assay to identify agonists of the transient receptor potential channel N1 (TRPN1). [Related pubchem assays: 1526, 1424, 1448 ]; type: functional
Ion channel NompC, sequence (Q7T1G6 whole entry): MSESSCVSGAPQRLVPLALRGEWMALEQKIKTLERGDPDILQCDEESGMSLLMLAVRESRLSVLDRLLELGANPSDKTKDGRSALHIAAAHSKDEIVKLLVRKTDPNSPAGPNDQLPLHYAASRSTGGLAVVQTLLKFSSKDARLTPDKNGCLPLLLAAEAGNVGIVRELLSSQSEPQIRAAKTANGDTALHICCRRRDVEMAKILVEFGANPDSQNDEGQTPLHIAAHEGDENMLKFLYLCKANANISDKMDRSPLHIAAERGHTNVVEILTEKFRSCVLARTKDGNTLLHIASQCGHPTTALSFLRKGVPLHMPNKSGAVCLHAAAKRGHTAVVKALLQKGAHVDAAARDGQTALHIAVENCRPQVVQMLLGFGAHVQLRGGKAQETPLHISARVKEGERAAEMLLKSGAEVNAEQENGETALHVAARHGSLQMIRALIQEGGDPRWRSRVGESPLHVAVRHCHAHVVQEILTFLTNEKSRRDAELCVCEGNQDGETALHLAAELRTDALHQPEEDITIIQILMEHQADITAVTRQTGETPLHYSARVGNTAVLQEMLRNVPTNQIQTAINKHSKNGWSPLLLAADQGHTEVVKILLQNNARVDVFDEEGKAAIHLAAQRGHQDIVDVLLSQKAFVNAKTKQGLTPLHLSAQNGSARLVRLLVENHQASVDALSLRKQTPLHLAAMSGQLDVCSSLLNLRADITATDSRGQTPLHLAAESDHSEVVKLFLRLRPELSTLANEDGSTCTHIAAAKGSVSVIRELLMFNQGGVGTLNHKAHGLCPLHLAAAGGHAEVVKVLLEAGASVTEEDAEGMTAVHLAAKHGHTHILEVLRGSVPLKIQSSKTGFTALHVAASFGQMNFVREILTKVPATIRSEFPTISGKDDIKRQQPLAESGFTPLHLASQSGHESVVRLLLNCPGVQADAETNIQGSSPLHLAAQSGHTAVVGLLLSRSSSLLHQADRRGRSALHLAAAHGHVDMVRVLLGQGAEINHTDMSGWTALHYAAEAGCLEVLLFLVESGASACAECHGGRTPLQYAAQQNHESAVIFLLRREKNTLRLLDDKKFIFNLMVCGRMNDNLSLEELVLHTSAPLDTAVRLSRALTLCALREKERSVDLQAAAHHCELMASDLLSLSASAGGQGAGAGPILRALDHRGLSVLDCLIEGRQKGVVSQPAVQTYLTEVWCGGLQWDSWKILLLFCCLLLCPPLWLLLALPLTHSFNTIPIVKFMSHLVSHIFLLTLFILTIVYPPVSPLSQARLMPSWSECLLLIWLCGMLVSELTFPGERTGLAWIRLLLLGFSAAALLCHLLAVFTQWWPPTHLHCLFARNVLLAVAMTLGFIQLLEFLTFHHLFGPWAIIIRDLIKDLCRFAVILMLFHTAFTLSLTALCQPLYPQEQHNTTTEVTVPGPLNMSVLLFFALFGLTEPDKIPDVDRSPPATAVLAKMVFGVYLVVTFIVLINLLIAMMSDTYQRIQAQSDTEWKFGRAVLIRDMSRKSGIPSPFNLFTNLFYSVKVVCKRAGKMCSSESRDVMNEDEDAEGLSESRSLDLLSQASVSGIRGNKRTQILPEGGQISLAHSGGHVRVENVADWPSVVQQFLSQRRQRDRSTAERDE

Compound: COc1cc(OC)cc(-c2c(-c3cccs3)c3cc(-c4ccc(N(C)C)nc4)ccc3n2C)c1
AC50 [1]: 109 µM (active)
AC50 [2]: 28.5 µM (active)

Compound: O=S(=O)(NCC(c1cccnc1)N1CCN(c2ccc(F)cc2)CC1)c1ccccc1 (configuration not stated)
EC50 [3]: > 60 µM (not active)
EC50 [4]: < 0.1 µM (active)
EC50 [5]: 0.057 µM (active)
EC50 [6]: 0.057 µM (active)
EC50 (cells): 0.066 µM (active)
EC50 [7]: > 195 µM (not active)

IC50 [8]: > 100 µM (inactive)
IC50 [9]: > 100 µM (inactive)
IC50 [10]: > 100 µM (not active)
IC50 [11]: > 100 µM (not active)
Compound: Cc1ccccc1Cn1c(=O)n(-c2ccccc2)c(=O)n([C@@H](C)C(N)=O)c1=O

IC50 [12]: 0.992 µM (active)
IC50 [13]: 1.8 µM (active)
EC50 (Cannabinoid receptor 1 [14]): > 32 µM (inactive)
EC50 [15]: > 32 µM (inactive)
EC50 (Mucolipin-3): 6.67 µM (active)
IC50 (Cannabinoid receptor 1 [16]): 5.95 µM (active)
IC50 [17]: > 32 µM (inactive)
IC50 (Cannabinoid receptor 2 [18]): > 32 µM (inactive)
EC50 (Cannabinoid receptor 2 [19]): > 32 µM (inactive)
EC50 (Ion channel NompC): > 29.9 µM (not active)
Compound: COc1ccc(S(=O)(=O)Nc2ccc(C)cc2)cc1N(C)S(=O)(=O)c1ccc(Cl)cc1

— ChEMBL document CHEMBL1201862, “PubChem BioAssay data set” (2004)
